In patent publication US20260109715A1, “IMIDAZOPYRIDINE DERIVATIVES WITH BICYCLIC STRUCTURE” (PUBLIC UNIVERSITY CORPORATION YOKOHAMA CITY UNIVERSITY, priority 2022, published 2026):

Tests used:
human SMG1 enzyme = human SMG1 enzyme (Homo sapiens, UniProt Q96Q15); test: Measurement of SMG1 kinase activity (ADP-Glo Kinase Assay); assay type: biochemical; conditions: purified human SMG1 enzyme 5 nM, Upf1 peptide substrate, ATP 4 μM; qAC50 synonymous with IC50; read-out: Test Example 1 ADP-Glo IC50
human SMG1 enzyme, sequence (Q96Q15 whole entry): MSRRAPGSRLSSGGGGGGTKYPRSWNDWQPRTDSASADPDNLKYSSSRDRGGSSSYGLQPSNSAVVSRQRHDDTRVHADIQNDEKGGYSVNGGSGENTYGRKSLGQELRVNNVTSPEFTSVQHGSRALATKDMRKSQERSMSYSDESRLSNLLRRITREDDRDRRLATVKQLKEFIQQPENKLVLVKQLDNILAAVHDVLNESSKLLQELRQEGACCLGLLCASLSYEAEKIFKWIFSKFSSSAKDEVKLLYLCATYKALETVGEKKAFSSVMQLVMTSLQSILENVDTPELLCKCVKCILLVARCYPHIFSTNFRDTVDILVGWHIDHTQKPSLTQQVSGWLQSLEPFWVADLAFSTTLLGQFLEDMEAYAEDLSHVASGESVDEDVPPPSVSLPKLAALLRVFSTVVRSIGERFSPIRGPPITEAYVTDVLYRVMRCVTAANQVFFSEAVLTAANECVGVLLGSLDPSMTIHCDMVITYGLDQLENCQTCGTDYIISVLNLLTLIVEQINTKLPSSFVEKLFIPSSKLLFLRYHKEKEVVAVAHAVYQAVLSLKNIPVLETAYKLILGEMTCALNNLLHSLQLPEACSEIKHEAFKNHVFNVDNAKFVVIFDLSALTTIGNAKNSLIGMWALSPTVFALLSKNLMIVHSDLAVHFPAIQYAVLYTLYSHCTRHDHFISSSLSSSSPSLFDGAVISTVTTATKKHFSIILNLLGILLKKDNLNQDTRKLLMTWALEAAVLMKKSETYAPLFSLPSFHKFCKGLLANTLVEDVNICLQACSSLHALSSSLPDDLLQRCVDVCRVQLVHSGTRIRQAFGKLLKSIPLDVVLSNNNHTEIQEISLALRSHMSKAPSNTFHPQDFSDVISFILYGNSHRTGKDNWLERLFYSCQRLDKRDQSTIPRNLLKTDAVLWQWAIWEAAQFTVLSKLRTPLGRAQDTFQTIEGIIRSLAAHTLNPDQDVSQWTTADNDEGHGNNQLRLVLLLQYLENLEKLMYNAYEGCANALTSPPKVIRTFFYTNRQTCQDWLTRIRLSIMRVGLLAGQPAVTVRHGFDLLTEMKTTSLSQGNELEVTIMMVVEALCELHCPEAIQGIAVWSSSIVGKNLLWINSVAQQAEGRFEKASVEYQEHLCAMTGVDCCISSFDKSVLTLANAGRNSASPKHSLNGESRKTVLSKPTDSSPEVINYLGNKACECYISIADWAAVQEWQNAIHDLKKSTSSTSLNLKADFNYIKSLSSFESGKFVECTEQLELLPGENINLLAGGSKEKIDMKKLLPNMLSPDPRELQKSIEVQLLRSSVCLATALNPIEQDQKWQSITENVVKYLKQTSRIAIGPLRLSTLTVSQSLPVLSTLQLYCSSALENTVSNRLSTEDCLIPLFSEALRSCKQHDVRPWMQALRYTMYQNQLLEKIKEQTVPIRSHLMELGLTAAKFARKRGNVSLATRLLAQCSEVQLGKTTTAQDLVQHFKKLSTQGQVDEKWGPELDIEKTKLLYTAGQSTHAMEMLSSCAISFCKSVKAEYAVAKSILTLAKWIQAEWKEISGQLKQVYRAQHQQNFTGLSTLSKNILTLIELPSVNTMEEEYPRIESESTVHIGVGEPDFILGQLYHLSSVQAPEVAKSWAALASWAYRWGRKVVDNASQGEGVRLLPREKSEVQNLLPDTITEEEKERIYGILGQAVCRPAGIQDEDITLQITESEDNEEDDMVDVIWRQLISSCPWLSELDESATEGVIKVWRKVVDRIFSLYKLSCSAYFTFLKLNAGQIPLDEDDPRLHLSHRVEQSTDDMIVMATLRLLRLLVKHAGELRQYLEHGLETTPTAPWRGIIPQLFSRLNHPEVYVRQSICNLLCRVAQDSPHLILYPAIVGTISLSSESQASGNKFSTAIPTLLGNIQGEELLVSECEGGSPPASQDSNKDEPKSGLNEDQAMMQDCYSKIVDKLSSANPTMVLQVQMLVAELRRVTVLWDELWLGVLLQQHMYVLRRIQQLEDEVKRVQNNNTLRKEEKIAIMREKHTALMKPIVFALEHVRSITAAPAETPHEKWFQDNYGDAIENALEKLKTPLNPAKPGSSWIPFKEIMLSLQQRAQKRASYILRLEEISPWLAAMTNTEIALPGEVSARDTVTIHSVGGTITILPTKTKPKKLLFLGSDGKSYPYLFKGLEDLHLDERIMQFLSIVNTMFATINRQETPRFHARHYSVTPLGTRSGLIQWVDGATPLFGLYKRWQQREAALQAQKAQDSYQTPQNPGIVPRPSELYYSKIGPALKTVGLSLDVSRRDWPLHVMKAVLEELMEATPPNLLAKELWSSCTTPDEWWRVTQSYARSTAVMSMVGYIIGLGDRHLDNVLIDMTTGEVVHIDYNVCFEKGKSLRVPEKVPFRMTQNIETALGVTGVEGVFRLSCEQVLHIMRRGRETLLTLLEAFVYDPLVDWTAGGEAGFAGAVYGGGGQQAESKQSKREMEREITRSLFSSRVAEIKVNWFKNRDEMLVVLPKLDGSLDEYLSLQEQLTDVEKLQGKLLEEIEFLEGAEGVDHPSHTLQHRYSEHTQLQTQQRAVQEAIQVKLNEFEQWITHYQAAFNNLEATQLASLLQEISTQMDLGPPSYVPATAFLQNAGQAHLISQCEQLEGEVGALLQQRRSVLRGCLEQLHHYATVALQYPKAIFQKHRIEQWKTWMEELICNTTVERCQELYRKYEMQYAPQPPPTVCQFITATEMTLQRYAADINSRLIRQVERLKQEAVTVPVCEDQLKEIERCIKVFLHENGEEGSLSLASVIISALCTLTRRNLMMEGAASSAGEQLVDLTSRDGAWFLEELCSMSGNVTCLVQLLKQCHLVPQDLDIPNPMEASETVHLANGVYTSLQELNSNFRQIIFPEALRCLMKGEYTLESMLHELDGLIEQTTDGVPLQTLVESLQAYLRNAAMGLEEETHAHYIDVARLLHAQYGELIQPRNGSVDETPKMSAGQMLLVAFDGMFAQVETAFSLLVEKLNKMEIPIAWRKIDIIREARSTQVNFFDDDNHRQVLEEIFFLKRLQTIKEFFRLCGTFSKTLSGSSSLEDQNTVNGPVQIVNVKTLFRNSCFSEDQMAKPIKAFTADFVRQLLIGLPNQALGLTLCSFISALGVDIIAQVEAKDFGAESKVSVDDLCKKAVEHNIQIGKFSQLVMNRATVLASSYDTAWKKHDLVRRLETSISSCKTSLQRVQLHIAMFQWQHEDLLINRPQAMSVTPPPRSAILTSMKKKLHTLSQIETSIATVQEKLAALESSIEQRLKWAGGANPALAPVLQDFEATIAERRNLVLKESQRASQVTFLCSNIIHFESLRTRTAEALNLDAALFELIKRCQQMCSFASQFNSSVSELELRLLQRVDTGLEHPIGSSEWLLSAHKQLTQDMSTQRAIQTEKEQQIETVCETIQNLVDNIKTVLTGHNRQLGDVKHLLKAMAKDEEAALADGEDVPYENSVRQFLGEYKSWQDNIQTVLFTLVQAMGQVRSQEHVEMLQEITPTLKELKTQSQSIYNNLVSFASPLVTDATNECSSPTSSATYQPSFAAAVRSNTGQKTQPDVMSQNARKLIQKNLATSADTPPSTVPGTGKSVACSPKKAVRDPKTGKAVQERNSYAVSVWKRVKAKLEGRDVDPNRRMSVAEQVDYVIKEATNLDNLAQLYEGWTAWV
In short: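 Purified human SMG1 (5 nM) preincubated with compound (1% DMSO) 15 min at room temperature in HEPES pH 7.5 buffer with MnCl2, then reacted 60 min with Upf1 peptide (8 μg/mL) and 4 μM ATP. ADP formed measured by ADP-Glo luminescence; IC50 by 4-parameter logistic fit, normalised to DMSO (0%) and enzyme-free (−100%) wells.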

[1] = test system: Snhg1 transcript in tumor tissues of mice subcutaneously implanted with EMT6 murine breast cancer cell line; test: Evaluation of NMD inhibitory activity in vivo (Snhg1 transcript in EMT6 tumor tissue after oral administration); conditions: 10 mg/kg oral, 6 hours after administration, BALB/c mice
In short: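 BALB/c mice bearing subcutaneous EMT6 tumours (engraftment confirmed day 7) dosed orally; tumours excised 6 h post-dose. Snhg1 RNA quantified by qRT-PCR, ΔΔCT with Gapdh as endogenous control, expressed relative to 0.5% methylcellulose vehicle group set at 1.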

[2] = test system: Snhg1 transcript (NMD target gene) in EMT6 murine breast cancer cell line; test: Measurement of NMD inhibitory activity in cells (increase in Snhg1 transcript, real-time PCR); set-up: species or system mouse; conditions: Mus musculus, 6 hours treatment, concentration giving 1/2 of maximum Snhg1 fold change of positive control, read-out: Test Example 2 Cell-based Snhg1 EC50
In short: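 EMT6 cells treated with serially diluted compound (2% DMSO final) for 6 h; Snhg1 transcript quantified by real-time PCR (ΔΔCT, Tbp endogenous control, untreated wells set to 1). EC50 taken as concentration giving half the maximum fold change of a known NMD inhibitor positive control.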

IC50 (human SMG1 enzyme): 1 nM | EC50 [2]: 8.8 nM
Compound: COc1cc(C2CC2)ncc1-c1nccc2[nH]c(=O)c(-c3nc4c(C)nc(Cl)cc4[nH]3)cc12.CS(=O)(=O)O [Example 140, 3-(6-chloro-4-methyl-1H-imidazo[4,5-c]pyridin-2-yl)-5-(6-cyclopropyl-4-methoxypyridin-3-yl)-1,6-naphthyridin-2(1H)-one methanesulfonate]
Snhg1 fold change [1]: 6.3
